Measurements published in patent US20250388589A1, “TRICYCLIC HETEROCYCLIC DERIVATIVES, COMPOSITIONS AND USES THEREOF” (Danatlas Pharmaceuticals Co., Ltd., priority 2022, published 2025).

How the values were obtained:
Kuramochi cell line = test: Cell Viability Assay (Cell Titer-Glo, 7 days); format: cell-based; conditions: 168 h, Kuramochi cells, 7 days incubation, read-out: PARG Cell viability (IC50)
In short: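 IC50 from a four-parameter fit of CellTiter-Glo luminescence, scaled between DMSO-treated (high) and medium-only (low) wells. Kuramochi cells (400/well, RPMI/10% FBS) exposed 7 days at 37 °C to 9 concentrations, 3-fold steps, in duplicate.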

[1] = target: hPARG (C-terminal His6-tag) (Homo sapiens (Human), UniProt Q86W56); test: PARG Enzymatic Activity Assay (HTRF); format: biochemical; conditions: hPARG 65 pM final, biotinylated-NAD ribosylated PARP1 8 nM final
In short: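 Readout is time-resolved fluorescence at 620 and 665 nm after 60 min RT detection with streptavidin-Eu cryptate and anti-6HIS-XL665; IC50 by 4-parameter fit, 1% DMSO and no-enzyme controls. Reaction: 8 nM final ribosylated PARP1 substrate for 10 min RT, following 60 min RT enzyme (65 pM)–compound preincubation in Tris pH 7.4 buffer with EDTA, DTT, KCl.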

Chain of hPARG (C-terminal His6-tag) (Q86W56 whole entry): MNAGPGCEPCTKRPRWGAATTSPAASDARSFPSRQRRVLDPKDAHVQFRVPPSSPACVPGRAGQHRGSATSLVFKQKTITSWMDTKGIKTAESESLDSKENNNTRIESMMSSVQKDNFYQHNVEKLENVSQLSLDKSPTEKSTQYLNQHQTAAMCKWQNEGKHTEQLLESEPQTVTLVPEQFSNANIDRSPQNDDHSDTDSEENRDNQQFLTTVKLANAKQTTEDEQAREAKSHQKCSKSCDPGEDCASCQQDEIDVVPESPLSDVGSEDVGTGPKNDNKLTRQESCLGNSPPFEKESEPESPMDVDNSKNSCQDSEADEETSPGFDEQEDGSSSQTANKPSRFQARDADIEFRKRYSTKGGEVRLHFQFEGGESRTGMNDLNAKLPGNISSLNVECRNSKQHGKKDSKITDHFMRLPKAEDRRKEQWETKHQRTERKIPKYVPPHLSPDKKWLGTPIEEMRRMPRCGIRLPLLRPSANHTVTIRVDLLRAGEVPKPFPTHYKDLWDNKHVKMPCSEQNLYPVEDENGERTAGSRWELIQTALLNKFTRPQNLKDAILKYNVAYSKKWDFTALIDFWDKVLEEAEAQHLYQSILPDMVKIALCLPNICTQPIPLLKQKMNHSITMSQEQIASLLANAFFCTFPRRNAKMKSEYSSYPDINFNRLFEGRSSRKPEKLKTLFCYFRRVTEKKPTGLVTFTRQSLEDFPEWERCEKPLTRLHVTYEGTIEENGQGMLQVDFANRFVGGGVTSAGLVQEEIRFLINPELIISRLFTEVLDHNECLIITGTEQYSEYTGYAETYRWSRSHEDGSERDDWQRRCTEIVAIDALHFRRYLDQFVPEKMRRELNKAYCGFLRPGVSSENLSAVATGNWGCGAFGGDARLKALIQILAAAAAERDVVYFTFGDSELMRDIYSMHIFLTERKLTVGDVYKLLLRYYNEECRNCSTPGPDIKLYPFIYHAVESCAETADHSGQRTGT

| Compound | IC50 (Kuramochi cell line) [µM] | IC50 [1] [µM] |
| --- | --- | --- |
| N#CC1(NS(=O)(=O)c2ccc3c4c(N5CCN(C(=O)C6CC6(F)F)CC5)ncnc4n(-c4nnc(C(F)F)s4)c3c2)CC1 (stereo not drawn) [Example 26, N-(1-Cyanocyclopropyl)-4-(4-(2,2-difluorocyclopropane-1-carbonyl)piperazin-1-yl)-9-(5-(difluoromethyl)-1,3,4-thiadiazol-2-yl)-9H-pyrimido[4,5-b]indole-7-sulfonamide] | < 0.1 | < 0.1 |
| N#CC1(NS(=O)(=O)c2ccc3c4c(N5CCS(=O)(=O)CC5)ncnc4n(-c4nnc(C(F)F)s4)c3c2)CC1 [Example 166, N-(1-cyanocyclopropyl)-9-(5-(difluoromethyl)-1,3,4-thiadiazol-2-yl)-4-(1,1-dioxidothiomorpholino)-9H-pyrimido[4,5-b]indole-7-sulfonamide] | 0.1 to 1 | < 0.1 |
| CCN(CC)C1CCN(c2ncnc3c2c2ccc(S(=O)(=O)NC4(C#N)CC4)cc2n3-c2nnc(C(F)F)s2)C[C@@H]1F (stereo partly drawn) [Example 206, N-(1-Cyanocyclopropyl)-4-((3S)-4-(diethylamino)-3-fluoropiperidin-1-yl)-9-(5-(difluoromethyl)-1,3,4-thiadiazol-2-yl)-9H-pyrimido[4,5-b]indole-7-sulfonamide] | < 0.1 | < 0.1 |
| CC(C)C(=O)N1[C@H](C)CN(c2ncnc3c2c2ccc(S(=O)(=O)NC4(C#N)CC4)cc2n3-c2nnc(C(F)F)s2)C[C@@H]1C [Example 62, N-(1-Cyanocyclopropyl)-9-(5-(difluoromethyl)-1,3,4-thiadiazol-2-yl)-4-((3S,5R)-4-isobutyryl-3,5-dimethylpiperazin-1-yl)-9H-pyrimido[4,5-b]indole-7-sulfonamide] | < 0.1 | < 0.1 |
| CN(C)C(=O)N1CC=C(c2ncnc3c2c2cc(F)c(S(=O)(=O)NC4(C)CC4)cc2n3-c2nnc(C(F)F)s2)CC1 [Example 81, 4-(9-(5-(Difluoromethyl)-1,3,4-thiadiazol-2-yl)-6-fluoro-7-(N-(1-methylcyclopropyl)sulfamoyl)-9H-pyrimido[4,5-b]indol-4-yl)-N,N-dimethyl-3,6-dihydropyridine-1(2H)-carboxamide] | < 0.1 | < 0.1 |
| C[C@H]1CN(c2ncnc3c2c2ccc(S(=O)(=O)NC4(C#N)CC4)cc2n3-c2nnc(C(F)F)s2)CCN1C [Example 98, (S)—N-(1-Cyanocyclopropyl)-9-(5-(difluoromethyl)-1,3,4-thiadiazol-2-yl)-4-(3,4-dimethylpiperazin-1-yl)-9H-pyrimido[4,5-b]indole-7-sulfonamide] | < 0.1 | < 0.1 |
| N#CC1(NS(=O)(=O)c2ccc3c4c(N5CCN(C(=O)C6CCOCC6)CC5)ncnc4n(-c4nnc(C(F)F)s4)c3c2)CC1 [Example 12, N-(1-Cyanocyclopropyl)-9-(5-(difluoromethyl)-1,3,4-thiadiazol-2-yl)-4-(4-(tetrahydro-2H-pyran-4-carbonyl)piperazin-1-yl)-9H-pyrimido[4,5-b]indole-7-sulfonamide] | < 0.1 | < 0.1 |
| CC(C)C(=O)N1C=CC(c2ncnc3c2c2ccc(S(=O)(=O)NC4(C#N)CC4)cc2n3-c2nnc(C(F)F)s2)CC1 (stereo not drawn) [Example 75, N-(1-Cyanocyclopropyl)-9-(5-(difluoromethyl)-1,3,4-thiadiazol-2-yl)-4-(1-isobutyryl-1,2,3,4-tetrahydropyridin-4-yl)-9H-pyrimido[4,5-b]indole-7-sulfonamide] | < 0.1 | < 0.1 |
| CC(C)C(=O)N1CCN(c2ncnc3c2c2ccc(S(=O)(=O)NC4(C#N)CC4)cc2n3-c2nnc(C(F)F)s2)C[C@@H]1C [Example 61, (S)-N-(1-cyanocyclopropyl)-9-(5-(difluoromethyl)-1,3,4-thiadiazol-2-yl)-4-(4-isobutyryl-3-methylpiperazin-1-yl)-9H-pyrimido[4,5-b]indole-7-sulfonamide] | < 0.1 | < 0.1 |
| N#CC1(NS(=O)(=O)c2ccc3c4c(N5CCN6C(=O)OC[C@H]6C5)ncnc4n(-c4nnc(C(F)F)s4)c3c2)CC1 [Example 167, (R)-N-(1-cyanocyclopropyl)-9-(5-(difluoromethyl)-1,3,4-thiadiazol-2-yl)-4-(3-oxotetrahydro-3H-oxazolo[3,4-a]pyrazin-7(1H)-yl)-9H-pyrimido[4,5-b]indole-7-sulfonamide] | < 0.1 | < 0.1 |
| N#CC1(NS(=O)(=O)c2ccc3c4c(C5CCN(C(=O)N6CCCO6)CC5)ncnc4n(-c4nnc(C(F)F)s4)c3c2)CC1 [Example 139] | < 0.1 | < 0.1 |
| Cc1ccc(C(=O)N2CCN(c3ncnc4c3c3ccc(S(=O)(=O)NC5(C#N)CC5)cc3n4-c3nnc(C(F)F)s3)CC2)cn1 [Example 27, N-(1-Cyanocyclopropyl)-9-(5-(difluoromethyl)-1,3,4-thiadiazol-2-yl)-4-(4-(6-methylnicotinoyl)piperazin-1-yl)-9H-pyrimido[4,5-b]indole-7-sulfonamide] | 0.1 to 1 | < 0.1 |
| CC(C)C(=O)N1CCC(c2ncnc3c2c2cc(F)c(S(=O)(=O)NC4(C#N)CC4)cc2n3-c2nnc(C(F)F)s2)CC1 [Example 90, N-(1-Cyanocyclopropyl)-9-(5-(difluoromethyl)-1,3,4-thiadiazol-2-yl)-6-fluoro-4-(1-isobutyrylpiperidin-4-yl)-9H-pyrimido[4,5-b]indole-7-sulfonamide] | < 0.1 | < 0.1 |
| CC(C)C(=O)N1[C@H](C)CN(c2ncnc3c2c2ccc(S(=O)(=O)NC4(C#N)CC4)cc2n3-c2nnc(C(F)F)s2)C[C@H]1C [Example 31, N-(1-Cyanocyclopropyl)-9-(5-(difluoromethyl)-1,3,4-thiadiazol-2-yl)-4-((3R,5R)-4-isobutyryl-3,5-dimethylpiperazin-1-yl)-9H-pyrimido[4,5-b]indole-7-sulfonamide] | 0.1 to 1 | 0.1 to 1 |
| N#CC1(NS(=O)(=O)c2ccc3c4c(N5CCC(F)CC5)ncnc4n(-c4nnc(C(F)F)s4)c3c2)CC1 [Example 51, N-(1-Cyanocyclopropyl)-9-(5-(difluoromethyl)-1,3,4-thiadiazol-2-yl)-4-(4-fluoropiperidin-1-yl)-9H-pyrimido[4,5-b]indole-7-sulfonamide] | 0.1 to 1 | < 0.1 |
| N#CC1(NS(=O)(=O)c2ccc3c4c(N5CCCOCC5)ncnc4n(-c4nnc(C(F)F)s4)c3c2)CC1 [Example 170, N-(1-Cyanocyclopropyl)-9-(5-(difluoromethyl)-1,3,4-thiadiazol-2-yl)-4-(1,4-oxazepan-4-yl)-9H-pyrimido[4,5-b]indole-7-sulfonamide] | < 0.1 | < 0.1 |
| CN1CCN(c2ncnc3c2c2ccc(S(=O)(=O)NC4(C#N)CC4)cc2n3-c2nnc(C(F)F)s2)CC1 [Example 56, N-(1-Cyanocyclopropyl)-9-(5-(difluoromethyl)-1,3,4-thiadiazol-2-yl)-4-(4-methylpiperazin-1-yl)-9H-pyrimido[4,5-b]indole-7-sulfonamide] | < 0.1 | < 0.1 |
| CO[C@@H]1CCN(c2ncnc3c2c2ccc(S(=O)(=O)NC4(C#N)CC4)cc2n3-c2nnc(C(F)F)s2)C[C@@H]1F [Example 171, N-(1-Cyanocyclopropyl)-9-(5-(difluoromethyl)-1,3,4-thiadiazol-2-yl)-4-((3S,4R)-3-fluoro-4-methoxypiperidin-1-yl)-9H-pyrimido[4,5-b]indole-7-sulfonamide] | < 0.1 | < 0.1 |
